Key:
[1] = system: GPR5; assay: Cell-based cAMP for Gi coupled target GPCRs, co-transfection with signal enhancer TSHR-A623I; set-up: species or system human; conditions: FIG. 2
Excerpt: (§1) A Gi coupled receptor is known to inhibit adenylyl cyclase, and, therefore, decrease the level of cAMP production, which can make assessment of cAMP levels challenging. An effective technique in measuring the decrease in production of cAMP as an indication of constitutive activation of a receptor that predominantly couples Gi upon activation can be accomplished by co-transfecting a signal enhancer, e.g., a non-endogenous, constitutively activated receptor that predominantly couples with Gs upon activation (e.g., TSHR-A623I, disclosed below), with the Gi linked GPCR (such a technique is exemplified herein with the Gi coupled receptor, GPR24). As is apparent, constitutive activation of a Gs coupled receptor can be determined based upon an increase in production of cAMP. Constitutive activation of a Gi coupled receptor leads to a decrease in production cAMP. Thus, the co-transfection approach is intended to advantageously exploit these “opposite” affects. For example, co-transfection of a non-endogenous, constitutively activated Gs coupled receptor (the “signal enhancer”) with the endogenous Gi coupled receptor (the “target receptor”) provides a baseline cAMP signal (i.e., although the Gi coupled receptor will decrease cAMP levels, this “decrease” will be relative to the substantial increase in cAMP levels established by constitutively activated Gs coupled signal enhancer). By then co-transfecting the signal enhancer with a constitutively activated version of the target receptor, cAMP would be expected to further decrease (relative to base line) due to the increased functional activity of the Gi target (i.e., which decreases cAMP).
(§2) TSHR is a Gs coupled GPCR that causes the accumulation of cAMP upon activation. TSHR was constitutively activated by mutating amino acid residue 623 (i.e., changing an alanine residue to an isoleucine residue). See, SEQ.ID.NO.:402 for nucleic acid sequence and SEQ.ID.NO.:403 for deduced amino acid sequence. A Gi coupled receptor is expected to inhibit adenylyl cyclase, and, therefore, decrease the level of cAMP production, which can make assessment of cAMP levels challenging. An effective technique for measuring the decrease in production of cAMP as an indication of constitutive activation of a Gi coupled receptor can be accomplished by co-transfecting, most preferably, non-endogenous, constitutively activated TSHR (TSHR-A623I) (or an endogenous, constitutively active Gs coupled receptor) as a “signal enhancer” with a Gi linked target GPCR, such as GPR24, to establish a baseline level of cAMP. Upon creating a non-endogenous version of the Gi coupled receptor, this non-endogenous version of the target GPCR is then co-transfected with the signal enhancer, and it is this material that can be used for screening. We utilized such approach to effectively generate a signal when a cAMP assay is used; this approach is preferably used in the direct identification of candidate compounds against Gi coupled receptors. It is noted that for a Gi coupled GPCR, when this approach is used, an inverse agonist of the target GPCR will increase the cAMP signal and an agonist will decrease the cAMP signal.
(§3) On day one, 2×10^4 Hek-293 and Hek-293T cells/well were plated out. On day two, two reaction tubes were prepared (the proportions to follow for each tube are per plate): tube A was prepared by mixing 2 μg DNA of each receptor transfected into the mammalian cells, for a total of 4 μg DNA (e.g., pCMV vector; pCMV vector with mutated THSR (TSHR-A623I); TSHR-A623I and GPR24, etc.) in 1.2 ml serum free DMEM (Irvine Scientific, Irvine, Calif.); tube B was prepared by mixing 120 μl lipofectamine (Gibco BRL) in 1.2 ml serum free DMEM. Tubes A and B were then admixed by inversion (several times), followed by incubation at room temperature for 30–45 min. The admixture is referred to as the “transfection mixture”. Plated Hek-293 cells were washed with 1×PBS, followed by addition of 10 ml serum free DMEM. […]

[2] = system: GPR24; assay: as above; set-up: species or system human; conditions: FIG. 1; for cAMP production: cells co-transfected with TSHR-A623I, in the presence of TSH; for decrease in cAMP production compared to TSHR-A623I with endogenous GPR24 (GPR24 wt): co-transfected with TSHR-A623I
Excerpt: as §1, §2, §3

[3] = system: GPR24; assay: Intracellular IP3 accumulation assay (Gq-associated receptors); type: cell-based, human; conditions: FIG. 4
Procedure: On day 1, cells comprising the receptors (endogenous and/or non-endogenous) can be plated onto 24 well plates, usually 1×10^5 cells/well (although this number can be optimized. On day 2 cells can be transfected by firstly mixing 0.25 μg DNA in 50 μL serum free DMEM/well and 2 μL lipofectamine in 50 μl serum-free DMEM/well. The solutions are gently mixed and incubated for 15–30 min at room temperature. Cells are washed with 0.5 ml PBS and 400 μl of serum free media is mixed with the transfection media and added to the cells. The cells are then incubated for 3–4 hrs at 37° C./5% CO2 and then the transfection media is removed and replaced with 1 ml/well of regular growth media. On day 3 the cells are labeled with ^3H-myo-inositol. Briefly, the media is removed and the cells are washed with 0.5 ml PBS. Then 0.5 ml inositol-free/serum free media (GIBCO BRL) is added/well with 0.25 μCi of ^3H-myo-inositol/well and the cells are incubated for 16–18 hrs o/n at 37° C./5% CO2. On Day 4 the cells are washed with 0.5 ml PBS and 0.45 ml of assay medium is added containing inositol-free/serum free media 10 μM pargyline 10 mM lithium chloride or 0.4 ml of assay medium and 50 μL of 10× ketanserin (ket) to final concentration of 10 μM. The cells are then incubated for 30 min at 37° C. […]

Row | Molecule | cAMP production ([1]; cells co-transfected with TSHR-A623I, in the presence of TSH) [pmol cAMP/well] | decrease in production of cAMP against pCMV co-transfected with TSHR-A623I ([1]; reference pCMV + TSHR-A623I 106.75 pmol cAMP/well) [%] | cAMP production [2] [pmol cAMP/well] | increase in IP3 accumulation compared to the endogenous version of GPR24 (GPR24 wt) [3] [%] | decrease in cAMP production compared to TSHR-A623I with endogenous GPR24 (GPR24 wt) [2] [%]
1 | GPR5 wt: endogenous target receptor GPR5 | 58.79 | ~45 |  |  | 
2 | GPR24 wt: endogenous human GPR24 (also known as MCH or SLC-1) receptor [reference compound] |  |  | 336.5 |  | 
3 | I261Q: non-endogenous version of the human GPR24 receptor with I261Q mutation (SEQ.ID.NO.:387) |  |  |  | ~32 | ~27
4 | 24-IC3-SST2: non-endogenous human GPR24 in which the IC3 loop is replaced with that of SST2 (SEQ.ID.NO.:359) (protein, listed as Homo sapiens) MDLEASLLPTGPNASNTSDGPDNLTSAGSPPRTGSISYINIIMPSVFGTICLLGIIGNSTVIFAVVKKSKLHWCNNVPDIFIINLSVVDLLFLLGMPFMIHQLMGNGVWHFGETMCTLITAMDANSQFTSTYILTAMAIDRYLATVHPISSTKFRKPSVATLVICLLWALSFISITPVWLYARLIPFPGGAVGCGIRLPNPDTDLYWFTLYQFFLAFALPFVVITAAYVRILQKVKSSGIRVGSSKRKKSEKKVTRTAIAICLVFFVCWAPYYVLQLTQLSISRPTLTFVYLYNAAISLGYANSCLNPFVYIVLCETFRKRLVLSVKPAAQGQLRAVSNAQTADEERTESKGTYFPCHPAHLQVRAPQHATGRDAEKNPRPLGKCRKAGLGVVAMKIHSMGSHVAGEAWSQVWGFQISEIPWGSRMRPLDRTEAEQENMLVWITGC |  |  | 262.266 | ~27 | ~22
